Measurements as given in patent publication US9115385B2, “Methods and compositions for topoisomerase I modulated tumor suppression” (RG BIOPHARMA, LLC, priority 2006, dated 2015).

What was measured:
purified CK2 holoenzyme = target: T1, purified CK2 holoenzyme (Homo sapiens, UniProt P68400); test: in vitro kinase assay of purified CK2 holoenzyme; type: biochemical; conditions: 10 nM
T1 construct: purchased Promega, Madison, Wis
From the text: (§1) P=supercoiled plasmid only.

CK2α catalytic subunit = target: T2, CK2α catalytic subunit (Homo sapiens, UniProt P68400); test: in vitro kinase assay of purified CK2α catalytic subunit; type: biochemical; conditions: 10 nM
T2 construct: purchased Active Motif, Carlsbad, Calif
T2 sequence (P68400 whole entry): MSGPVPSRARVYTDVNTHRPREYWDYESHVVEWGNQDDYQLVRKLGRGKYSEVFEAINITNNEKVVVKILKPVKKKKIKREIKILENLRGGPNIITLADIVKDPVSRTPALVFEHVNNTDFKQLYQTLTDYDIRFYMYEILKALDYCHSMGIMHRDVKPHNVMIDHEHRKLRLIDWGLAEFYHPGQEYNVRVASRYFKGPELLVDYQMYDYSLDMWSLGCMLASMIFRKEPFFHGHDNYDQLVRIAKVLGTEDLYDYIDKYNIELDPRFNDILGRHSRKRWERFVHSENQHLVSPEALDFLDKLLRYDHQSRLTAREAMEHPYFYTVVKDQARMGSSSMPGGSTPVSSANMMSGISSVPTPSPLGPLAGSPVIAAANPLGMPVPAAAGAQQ
From the text: as §1

cdk1 = cdk1 (Homo sapiens, UniProt P06493); test: endogenous cdk1 activity in lysates of treated H23 cells; type: cell-based; design: endogenous in cells; host or cells: H23 cells (lysates); conditions: H23 cells treated with 10 nM, three day assay
Chain of cdk1 (P06493 whole entry): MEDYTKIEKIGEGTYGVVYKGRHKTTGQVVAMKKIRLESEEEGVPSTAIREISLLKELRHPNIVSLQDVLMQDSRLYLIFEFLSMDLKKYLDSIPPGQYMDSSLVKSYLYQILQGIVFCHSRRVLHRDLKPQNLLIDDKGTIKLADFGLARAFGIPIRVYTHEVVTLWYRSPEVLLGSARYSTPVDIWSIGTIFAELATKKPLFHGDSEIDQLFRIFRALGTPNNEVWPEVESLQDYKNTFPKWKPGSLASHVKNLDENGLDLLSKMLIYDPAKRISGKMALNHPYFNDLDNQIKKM
Chain of cdk1 (P14635 whole entry partner): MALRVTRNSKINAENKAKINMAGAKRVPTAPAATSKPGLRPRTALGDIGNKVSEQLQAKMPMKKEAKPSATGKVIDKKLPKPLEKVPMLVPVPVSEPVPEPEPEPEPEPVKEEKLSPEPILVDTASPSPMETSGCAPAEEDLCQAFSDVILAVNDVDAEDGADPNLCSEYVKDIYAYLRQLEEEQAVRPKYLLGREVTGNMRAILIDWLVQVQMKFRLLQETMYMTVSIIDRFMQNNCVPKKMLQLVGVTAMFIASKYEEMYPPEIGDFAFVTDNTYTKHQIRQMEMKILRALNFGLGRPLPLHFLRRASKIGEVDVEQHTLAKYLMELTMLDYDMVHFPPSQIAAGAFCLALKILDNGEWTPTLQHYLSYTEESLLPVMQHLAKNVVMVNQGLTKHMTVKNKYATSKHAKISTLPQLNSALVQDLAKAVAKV
From the text: as §1

PKC = test: endogenous PKC activity in lysates of treated H23 cells; conditions: H23 cells treated with 10 nM, three day assay
CK2 protein (α subunit) = target: T3, CK2 protein (α subunit) (Homo sapiens, UniProt P68400); test: Western analysis of CK2 protein in lysates of treated cells; type: cell-based; conditions: H23 cells, 72 hours
T3 construct: endogenous in cells; host or cells: H23 cells (lysates)
T3 sequence (P68400 whole entry): as the sequence (P68400 whole entry) above

[1] = tested on: ARF/topoisomerase I complex; test: topo I immunoprecipitation followed by ARF Western in treated cells; type: cell-based, human; conditions: H23 cells treated with CK2 activator
[2] = tested on: topo I phosphoserine 506 epitope; test: Western of phosphoserine 506 epitope of topo I in treated cells; type: cell-based, human; conditions: H23 cells treated as in FIG. 13B
purified cdk1 = target: T4, purified cdk1 (Homo sapiens, UniProt P06493); test: in vitro kinase assay of purified cdk1; type: biochemical; conditions: 10 nM
T4 construct: purchased Enzo Life Sciences, Farmingdale, N.Y
T4 sequence (P06493 whole entry, species assumed): as the sequence (P06493 whole entry) above
T4 sequence (P14635 whole entry partner, species assumed): as the sequence (P14635 whole entry partner) above
From the text: as §1

H23 cells = test: cell viability assay with camptothecin, H23; type: cell-based, human
Procedure: Control cells received no pretreatment. […] CK2 activator treatment was for the duration of the assay. Cell viability was scored 3 days post-start of camptothecin treatment.
Viability assays were performed 24 hours post-vector treatment by exposing cells for 24 hours to increasing doses of camptothecin (a topoisomerase I inhibitor) in triplicate in a 96-well viability assay, and assaying them for viability 5 days post-start of vector treatment (FIG. 5B). For each growth curve, cell viabilities were normalized to the viability of cells treated with vector only (no camptothecin), to enable a direct visualization of the sensitization effect.
Studies of a large panel of cell lines have shown that cell lines with overexpressed CK2 (FIGS. 11B1-B3 and 11C1-C3) display hyper serine phosphorylation of topo I (FIG. 11D) that correlates with sensitivity to camptothecin (FIG. 11A). […] Cells were plated at 2000 cells per well and allowed to attach. Triplicate wells were then treated with the indicated doses of camptothecin for 18 hours, and monitored for viability 3 days post-start of treatment. Viability is represented as a % of control, untreated, cell viability. Referring to FIGS. 11B1-B3, PKC (B1), cdk1 (B2), and CK2 (B3) levels in cancer cell lines: Cell lysates were prepared from the indicated cancer cell lines and assayed for enzymatic activities, or evaluated by Western analysis for total PKC, cdk1, or CK2 protein levels. Actin levels served as a control (same control for PKC, cdk1, and CK2). Referring to FIGS. 11C1-C3 PKC (C1), cdk1 (C2), and CK2 (C3) levels in normal cell lines, compared to H358 and H23: Cell lysates were prepared from the indicated cell lines and evaluated as before. Numbers below Western blots indicate digital reading of band intensities of PCK, cdk1, or CK2 Western blots, relative to H358. Referring to FIG. 11D, topo-I immunoprecipitation followed by topo-I Western (top row) or phosphoserine Western (bottom row). Numbers below Western blot are digital readings of ser-P band intensities relative to H358.

CK2 = CK2 activity in nuclear extracts of treated H358 or H23 cells; type: cell-based, human
purified PKC = test: in vitro kinase assay of purified PKC; conditions: 10 nM
CK2α transcription = test: RT-PCR of CK2α mRNA in treated H23 cells; conditions: 10 nM, 3 days
topoisomerase I = topoisomerase I plasmid relaxation assay with nuclear extracts of treated cells; type: cell-based, human; conditions: H23 cells, 72 hours after treatment, 0.75 μg lysates protein per reaction
[3] = tested on: topo I serine phosphorylation; test: topo I immunoprecipitation followed by phosphoserine Western in treated cells; conditions: H23 cells, digital quantitation of band intensities

T1 sequence (P68400 whole entry): as the sequence (P68400 whole entry) above
T1 sequence (P67870 whole entry partner): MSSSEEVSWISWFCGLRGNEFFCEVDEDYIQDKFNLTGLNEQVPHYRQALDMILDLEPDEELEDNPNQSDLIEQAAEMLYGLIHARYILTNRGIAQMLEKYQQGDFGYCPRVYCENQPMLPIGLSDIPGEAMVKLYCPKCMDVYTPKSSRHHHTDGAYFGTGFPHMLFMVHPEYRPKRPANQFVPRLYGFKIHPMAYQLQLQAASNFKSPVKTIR

stimulation of purified CK2 holoenzyme activity (purified CK2 holoenzyme): ~6 fold | stimulation of CK2α catalytic subunit activity (CK2α catalytic subunit): ~6 fold | effect on endogenous cdk1 activity (cdk1): no effect | CK2 protein accumulation (CK2 protein (α subunit)): enhances the accumulation of CK2 protein | effect on purified cdk1 activity (purified cdk1): no effect | effect on purified PKC activity (purified PKC): no effect
Compound: CCn1cnc(C(N)=O)c1C(N)=O [CK2 activator]
effect on endogenous PKC activity (PKC): no effect | p14ARF/topo I complex formation [1]: complex formation occurs | cellular levels of the phosphoserine 506 epitope [2]: induces cellular levels of the phosphorylated epitope | effect on cell viability (activator alone) (H23 cells; 10 nM): no effect on cell viability | change of cellular response to camptothecin (H23 cells; 10 nM activator for duration of assay, camptothecin 18 hours, 3-day viability): more sensitive to camptothecin | lowest dose that could activate CK2 while having no effect on cell viability (H23 cells; range of 5-100 nM tested): 10 nM | increase in CK2 activity relative to untreated cells (CK2; H23 cells, 10 nM for duration of assay): 4 fold | increase in CK2 activity (CK2; H358 cells, similar treatment (data not shown)): 10% | CK2α transcription (CK2α transcription): not CK2α transcription | conversion of supercoiled plasmid to relaxed form by nuclear extract (topoisomerase I): converts virtually all of the supercoiled form to relaxed form | increase in topo I phosphorylation relative to untreated H23 cells [3]: ~4.7 fold
